Measured values from patent US20220372491A1, “TREATMENT OF RENAL CYSTIC DISEASE” (MONASH UNIVERSITY, priority 2019, published 2022).

Tests used:
[1] = tested on: Inpp5e^Δ/Δ; Aurka^Δ/Δ mice; experiment: Oral Alisertib treatment of Inpp5e^Δ/Δ; Aurka^Δ/Δ (double mutant) mice; type: in vivo, mouse
Procedure: (§1) Alisertib treatment was performed based on previously published protocols (Nikonova et al., (2014) PNAS 111:12859-12864; Nikonova (2015) Frontiers Oncol. 5:228), as follows: Starting at P9 Inpp5e^Δ/Δ and Inpp5e^Δ/Δ mice were treated once daily for 5 days with Alisertib delivered orally by pipette in a suspended solution with a final composition of 3.6 mg/ml Alisertib ([…], Selleck Chemicals) in 10% 2-hydroxypropyl-β-cyclodextrin ([…]-10ML, Sigma-Aldrich) with 1% (vol/vol) sodium bicarbonate ([…]-100ML, Sigma-Aldrich) and 5% glucose (49163-100ML, Sigma-Aldrich). Mice were dosed with a volume to deliver Alisertib at 10 mg/kg. Mouse body weights were recorded daily. Solutions were stored at 4 degrees for up to 1 month. […] Mice were then given 2 recovery days before being sacrificed at P15. This time frame was selected as it corresponded to an exponential rise in cyst number in Inpp5e^Δ/Δ mice. Aurka^Δ/Δ and Inpp5e^Δ/Δ; Aurka^Δ/Δ treatment groups were also included to determine the AURKA specificity of any phenotypes observed given Alisertib's broad drug targeting profile. Mice were culled via cervical dislocation or decapitation, as most appropriate for their age following ethical guidelines. Procedures were all conducted by ethically approved and trained personnel. Mice were measured for body weight, with ear tissue, urine and kidneys collected. Ear tissue and urine was stored at -20 degrees. Newborn and P4 kidneys were fixed whole in 4% PFA for 16 hrs at 4 degrees, while the kidney capsule membrane was removed from older mouse kidneys, with the kidney cut into halves and fixed in 10% NBF for 16 hrs at room temperature. Half the kidney samples were sent for histological processing and the other half were snap frozen and stored at -80 degrees until processed for RNA, alpha analysis and/or western blotting. Kidney tissues were paraffin imbedded and sectioned at 4 μm for most analysis with the exception of being sectioned at 10 μm for cilia analysis. Antigen retrieval was performed in Citrate buffer pH6 using Tefal pressure cooker or using a DAKO […] system as indicated. Antibody staining was performed as described elsewhere (Cottle et al., (2013) Cell reports, 3: 427-441), except triton x-100 was included in blocking buffers, and cover slips mounted using Prolong Gold (Invitrogen). Antibodies and stains are listed below. Imaging was using an Aperio brightfield and fluorescent scanners (MHP), Olympus Fluoview 500 (Biochemistry Imaging Suite), Nikon C2 or Leica SP8 confocal microscope (MMI). All quantifications with the exception of Nanostring analysis and Chi squared tests for analysis of mendelian ratios, were analyzed using the unpaired Student's t-test assuming unequal variance in Microsoft Excel and P≤0.05 values were considered significant. One or two tailed tests were selected as appropriate for hypothesis. Values presented are Mean±Standard Error of the Mean (S.E.M). 2K/BW % was calculated as the combined kidney weight over total body weight percentage. Albumin Creatinine Ratios (ACR) were calculated as μg Albumin over mg of Creatinine. Cyst identity was measured as a proportion of cyst epithelial area for each marker out of total sum of cyst epithelial areas of all markers (adjusted for marker co-localisation). Cystic index % is calculated as the proportion of cystic space occupied out of total kidney area in DBA-stained kidney longitudinal cross-sections. Cyst number reflects the average number of cysts counted per DBA-stained longitudinal kidney cross section. Cyst size is the average cross-sectional cyst size (mm^2) of cysts sampled from DBA-stained kidney longitudinal cross sections. Due to escape of Cre activity at the Aurka locus in cysts, unless otherwise indicated references to Inpp5e^Δ/Δ; Aurka^Δ/Δ immunostains and their quantifications reflect non-cystic regions throughout this study.

[2] = Solubility of Alisertib in the oral dosing vehicle; type: physicochemical; conditions: 3.6 mg/ml in 10% 2-hydroxypropyl-β-cyclodextrin, 1% sodium bicarbonate, 5% glucose
Procedure: Alisertib treatment was performed based on previously published protocols (Nikonova et al., (2014) PNAS 111:12859-12864; Nikonova (2015) Frontiers Oncol. 5:228), as follows: Starting at P9 Inpp5e^Δ/Δ and Inpp5e^Δ/Δ mice were treated once daily for 5 days with Alisertib delivered orally by pipette in a suspended solution with a final composition of 3.6 mg/ml Alisertib (S1133, Selleck Chemicals) in 10% 2-hydroxypropyl-β-cyclodextrin (H5784-10ML, Sigma-Aldrich) with 1% (vol/vol) sodium bicarbonate (S8761-100ML, Sigma-Aldrich) and 5% glucose (49163-100ML, Sigma-Aldrich). Mice were dosed with a volume to deliver Alisertib at 10 mg/kg. Mouse body weights were recorded daily. Solutions were stored at 4 degrees for up to 1 month. […] Mice were then given 2 recovery days before being sacrificed at P15. This time frame was selected as it corresponded to an exponential rise in cyst number in Inpp5e^Δ/Δ mice. Aurka^Δ/Δ and Inpp5e^Δ/Δ; Aurka^Δ/Δ treatment groups were also included to determine the AURKA specificity of any phenotypes observed given Alisertib's broad drug targeting profile.

mIMCD3 cells = experiment: Western blots and densitometry of mIMCD3 cell lysates treated with Alisertib; type: cell-based, mouse
Procedure: mIMCD3 cells were grown as previously described (Plotnikova et al., (2015) J. Cell Sci. 128: 364-372). Using a hemocytometer, mIMCD3 cells were seeded in 6 well dishes at 1.3×10^5 cells per well in growth media and incubated overnight at 37° C. in 5% CO2. Lipofectamine 3000 Reagent kit (Invitrogen) was used for plasmid transfection according to manufacturer's protocol (3.75 μl of Lipofectamine 3000, 2.5 μg DNA and 5 μl of P3000 reagent in each well). siRNA transfections were also performed with Lipofectamine 3000 (Invitrogen) according to manufacturer's protocol (0.75 μl of Lipofectamine 3000, 25 pmol siRNA in each well). Plasmids included pCGN (HA-tag)^48, pCGN-HA-AURKA (gift from Olga Plotniknova), and pCGN-HA-AURKA KD (made in this study using Q5 Site-Directed Mutagenesis Kit NEB.E0554S according to manufacturer's protocol to contain the K162R variant described for pCDNA3.1-mRFP-AURKA K162R). All plasmids were prepared with Qiagen plasmid midiprep kits. siRNAs were All Stars negative control siRNA (S103650318, Qiagen) and Mm_Aurka_1 Flexitube siRNA (S100908803, Qiagen). Alisertib (10 mM in DMSO, S1133, SelleckChem) was added to media at 1 μM final concentration where indicated.
Following ˜16 hrs after plasmid and siRNA transfections, fresh growth media was placed on mIMCD3 cells and wells harvested up to 24 hrs later. Alternatively, for serum-starvation conditions, 0.5% serum containing was placed on mIMCD3 cells and wells harvested after 24 hrs. For serum-restimulation conditions mIMCD3 cells were first placed in 0.5% serum media for 24 hrs before addition of fresh growth media for up to 20 mins before harvest. For immunofluorescence experiments, mIMCD3 cells were grown on collagen I-coated 22×22 mm coverslips and processed as described in Cottle et al., (2007) J. Cell Sci. 120: 1423-1435 and Wiradjaja et al., (2013) Disease models & mechanisms, 6: 1426-1433).
Tissue extracts were prepared in AlphaLISA Surefire Ultra lysis buffer. Cell extracts were prepared in 1% Triton X-100 in Tris-buffered saline pH7.4 with Roche complete mini protease and PhosSTOP inhibitor tablets as described above. Immunoblotting was performed using standard techniques, with antibodies listed below. Densitometry values were determined using ImageJ software and occasional extreme outliers more than 2 standard deviations from the mean omitted.

[3] = tested on: adult mouse models of ADPKD; conditions: cited from earlier work
Inpp5e^Δ/Δ mice = experiment: Oral Alisertib treatment of Inpp5e^Δ/Δ mice (Joubert Syndrome associated PKD model); type: in vivo, mouse
Procedure: as §1

[4] = double mutant mice, relative to vehicle controls
[5] = mice in which Aurka had been predominantly deleted, 10 mg/kg orally P9 to P13, P15
[6] = 1 μM Alisertib, 48 hrs, growth conditions
[7] = Inpp5e^Δ/Δ mice, 10 mg/kg orally P9 to P13, P15, vs vehicle

COc1cc(Nc2ncc3c(n2)-c2ccc(Cl)cc2C(c2c(F)cccc2OC)=NC3)ccc1C(=O)O [Alisertib]
AKT pT308 expression [1, 4]: did not show reduced ciliation or AKT pT308 expression
ciliation [1, 4]: did not show reduced ciliation
cyst index [1, 5]: No change
cyst number [1, 5]: No change
cyst size [1, 5]: No change
kidney to body weight ratio [1, 5]: No change
solubility in dosing vehicle [2]: largely insoluble
AURKA protein level (mIMCD3 cells; 1 μM Alisertib, 48 hrs of exposure, growth conditions): two-fold increase in AURKA protein
AKT phosphorylation at S473 (AKT pS473/total AKT expression ratio) (mIMCD3 cells; [6]): but not S473
AKT phosphorylation at T308 (AKT pT308/total AKT expression ratio) (mIMCD3 cells; [6]): increasing AKT phosphorylation at T308
total AKT (mIMCD3 cells; [6]): modestly reducing total AKT
rebound increase of AKT T308 phosphorylation (mIMCD3 cells; 24 hrs of Alisertib exposure): not observed following 24 hrs of Alisertib exposure
AURKA T288 phosphorylation ratio (mIMCD3 cells; Alisertib or vehicle for 48 hrs under growth conditions): reduces the AURKA T288 phosphorylation ratio
cystic disease [3]: exaggerates cystic disease
levels of nuclear localised active p53 in collecting duct cells (Inpp5e^Δ/Δ mice; 10 mg/kg orally once daily P9 to P13, tissue at P15): increased levels of nuclear localised active p53
cilia number (% ciliated collecting duct cells) (Inpp5e^Δ/Δ mice; Inpp5e^Δ/Δ kidneys, vs vehicle): markedly reduced cilia number
co-expression of high levels of AURKA and AKT pT308 in collecting duct cells (Inpp5e^Δ/Δ mice; Inpp5e^Δ/Δ kidneys, vs vehicle): increased co-expression of high levels of AURKA and AKT pT308
cyst size (Inpp5e^Δ/Δ mice; [7]): reduced cyst size
kidney to body weight ratio and kidney size (Inpp5e^Δ/Δ mice; [7]): marked reduction in kidney to body weight ratio and kidney size
number of cysts (Inpp5e^Δ/Δ mice; [7]): increased in the number of cysts
hair loss (Inpp5e^Δ/Δ mice; all Alisertib-treated mouse cohorts vs vehicle, 10 mg/kg orally once daily P9 to P13, tissue at P15): hair loss observed in all treated mouse cohorts
cystic index % (Inpp5e^Δ/Δ mice; cystic genotypes Inpp5e^Δ/Δ and Inpp5e^Δ/Δ, Aurka^Δ/Δ, vs vehicle): no Alisertib-induced changes
